These results are taken from patent publication US20080207527A1, “Bicyclic Compounds Which Inhibit Beta-Secretase Activity and Methods of Use Thereof” (CoMentis, Inc., priority 2004, published 2008).

One experiment concerns the target T1, memapsin 1 (Homo sapiens, UniProt Q9Y5Z0).
T1 sequence (Q9Y5Z0 63-518): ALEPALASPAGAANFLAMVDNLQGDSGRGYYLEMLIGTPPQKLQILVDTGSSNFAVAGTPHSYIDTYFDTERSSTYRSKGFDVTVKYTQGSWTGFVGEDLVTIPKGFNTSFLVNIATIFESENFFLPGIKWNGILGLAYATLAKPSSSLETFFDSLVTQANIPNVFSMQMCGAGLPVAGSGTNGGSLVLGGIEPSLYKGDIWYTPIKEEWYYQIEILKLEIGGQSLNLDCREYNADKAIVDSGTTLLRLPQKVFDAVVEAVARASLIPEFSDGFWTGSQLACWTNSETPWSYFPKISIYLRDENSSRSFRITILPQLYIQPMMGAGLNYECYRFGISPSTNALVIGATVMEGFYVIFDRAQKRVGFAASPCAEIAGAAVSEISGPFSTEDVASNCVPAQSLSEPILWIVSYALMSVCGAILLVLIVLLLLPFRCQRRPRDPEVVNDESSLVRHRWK
The experiment in a line: Inhibition of memapsin 1 beta-secretase activity (substrate peptide hydrolysis, MALDI-TOF). The conditions noted are these: pH 4.1, 37 degrees C., read-out: M1 Ki. Type of experiment: biochemical.

In the next experiment the target is memapsin 2 (Homo sapiens, UniProt P56817). The experiment in a line: Inhibition of memapsin 2 beta-secretase activity toward fluorogenic substrate FS-2. Type of experiment: biochemical. The conditions noted are these: pH 4, 37° C., 20 minutes pre-incubation, read-out: M2 Ki. In outline: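 Enzyme pre-incubated with compound 20 min at pH 4, 37 °C, then fluorogenic substrate FS-2 added. Inhibition derived from rate of fluorescence increase from peptide hydrolysis.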

A further experiment has as its target Cathepsin D (Homo sapiens, UniProt P07339). Description: Inhibition of cathepsin D activity (substrate peptide hydrolysis, MALDI-TOF). Type of experiment: biochemical. The conditions noted are these: pH 4.1, 37 degrees C., read-out: Cath D Ki.
In another experiment the test system is Aβ production. Description: Cellular Aβ IC50 determination (Aβ40 sandwich ELISA). Type of experiment: cell-based. The conditions noted are these: Cricetulus griseus, Chinese hamster ovary cells over-expressing human APP695 with London and Swedish mutations, 24 h. In outline:
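CHO cells over-expressing human APP695 (London and Swedish mutations) were treated 48 h after seeding with serially diluted compound, top final concentration near 4 μM (0.4% DMSO), for 24 h at 37 °C, 5% CO2. Aβ40 in medium was measured by sandwich ELISA; values relative to control were fit to a 4-parameter IC50 model.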
In general terms: In an ELISA, binding on a coated surface is turned into a signal by an enzyme label.

The structures appear in SMILES notation.

memapsin 2, sequence (P56817 46-501): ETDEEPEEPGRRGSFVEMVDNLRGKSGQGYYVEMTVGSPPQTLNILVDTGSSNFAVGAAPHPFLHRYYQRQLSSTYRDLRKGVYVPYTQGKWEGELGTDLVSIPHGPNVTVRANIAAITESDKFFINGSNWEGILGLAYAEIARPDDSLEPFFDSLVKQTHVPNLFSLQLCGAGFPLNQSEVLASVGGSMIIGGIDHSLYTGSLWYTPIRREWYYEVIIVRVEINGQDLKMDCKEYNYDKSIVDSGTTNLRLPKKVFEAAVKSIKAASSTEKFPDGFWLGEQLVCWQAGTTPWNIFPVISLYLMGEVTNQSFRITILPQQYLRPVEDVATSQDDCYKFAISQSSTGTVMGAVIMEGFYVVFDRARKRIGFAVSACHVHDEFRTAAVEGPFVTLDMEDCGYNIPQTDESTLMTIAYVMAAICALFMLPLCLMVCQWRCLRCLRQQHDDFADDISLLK
Cathepsin D, sequence (P07339 65-412, species assumed): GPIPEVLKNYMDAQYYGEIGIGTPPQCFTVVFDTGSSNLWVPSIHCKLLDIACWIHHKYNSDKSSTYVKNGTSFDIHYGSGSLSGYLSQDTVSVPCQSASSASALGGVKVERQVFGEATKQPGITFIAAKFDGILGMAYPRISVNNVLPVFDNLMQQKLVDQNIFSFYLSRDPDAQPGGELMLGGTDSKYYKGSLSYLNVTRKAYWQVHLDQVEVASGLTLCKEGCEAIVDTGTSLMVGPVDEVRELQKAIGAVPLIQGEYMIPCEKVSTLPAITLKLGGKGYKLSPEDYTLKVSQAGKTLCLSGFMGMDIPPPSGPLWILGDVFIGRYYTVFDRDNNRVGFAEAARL

Broadly, the Ki is a dissociation constant, usually derived from enzyme kinetics or from competition with a known ligand. As a reminder, the IC50 is the midpoint of a concentration-inhibition curve. High values mean a need for much substance, low ones inhibition by little substance. Regarding `CC(C)CC(NC(=O)c1cc(C(=O)NC(C)c2ccccc2)cc(N(C)S(C)(=O)=O)c1)C(O)CC(C)C(=O)NC(C(=O)NCc1cccnc1)C(C)C` (centres unmarked) [N1-(5-hydroxy-2,7-dimethyl-8-(3-methyl-1-oxo-1-(pyridin-3-ylmethylamino)butan-2-ylamino)-8-oxooctan-4-yl)-5-(N-methylmethylsulfonamido)-N3-(1-phenylethyl)isophthalamide], the inhibition constant (Ki) was under 405 nM at memapsin 1, under 405 nM at memapsin 2 and 405 to 2000 nM at Cathepsin D. The molecule also gave an IC50 in the experiment with Aβ production of under 5 µM.

In the case of `CC(C)CC(NC(=O)c1cc(C(=O)NC(C)c2ccccc2)cc(N(C)S(C)(=O)=O)c1)C(O)CC(C)C(=O)NC(C(=O)NCc1ccncc1)C(C)C` (centres unmarked) [N1-(5-hydroxy-2,7-dimethyl-8-(3-methyl-1-oxo-1-(pyridin-4-ylmethylamino)butan-2-ylamino)-8-oxooctan-4-yl)-5-(N-methylmethylsulfonamido)-N3-(1-phenylethyl)isophthalamide], the inhibition constant (Ki) on memapsin 1, on memapsin 2 and at Cathepsin D was under 405 nM each time. Further, the IC50 in the experiment on Aβ production is under 5 µM.

For `CC(C)CC(NC(=O)c1cc(C(=O)NC(C)c2ccccc2)cc(N(C)S(C)(=O)=O)c1)C(O)CC(C)C(=O)NC(C)c1ccccc1` (centres unmarked) [N1-(5-hydroxy-2,7-dimethyl-8-oxo-8-(1-phenylethylamino)octan-4-yl)-5-(N-methylmethylsulfonamido)-N3-(1-phenylethyl)isophthalamide], the figures for the Ki on memapsin 1, on memapsin 2 and on Cathepsin D were over 5000 nM, 405 to 2000 nM and 2000 to 5000 nM, respectively. The IC50 in the experiment on Aβ production fell in the range of 10 to 20 µM.

With `CCC(NC(=O)C(C)CC(O)C(CC(C)C)NC(=O)c1cc(C(=O)NC(C)c2ccccc2)cc(N(C)S(C)(=O)=O)c1)C(=O)NCC(C)C` (centres unmarked) [N1-(5-hydroxy-8-(1-(isobutylamino)-1-oxobutan-2-ylamino)-2,7-dimethyl-8-oxooctan-4-yl)-5-(N-methylmethylsulfonamido)-N3-(1-phenylethyl)isophthalamide], the inhibition constant (Ki) at memapsin 1, at memapsin 2 and at Cathepsin D was under 405 nM throughout. The molecule also returned an IC50 in the experiment on Aβ production of under 5 µM.

Take `CC(C)CNC(=O)C(NC(=O)C(C)CC(O)C(CC(C)C)NC(=O)c1cc(C(=O)NCc2cnccn2)cc(N(C)S(C)(=O)=O)c1)C(C)C` (centres unmarked) [N1-(5-hydroxy-8-(1-(isobutylamino)-3-methyl-1-oxobutan-2-ylamino)-2,7-dimethyl-8-oxooctan-4-yl)-5-(N-methylmethylsulfonamido)-N3-(pyrazin-2-ylmethyl)isophthalamide]: the Ki on memapsin 1 was 405 to 2000 nM; on memapsin 2 it was under 405 nM; on Cathepsin D it was 405 to 2000 nM. The molecule also had an IC50 in the experiment on Aβ production of over 20 µM.

On to `Cc1cc(C(=O)NC(CC(C)C)C(O)CC(C)C(=O)NC(C(=O)NCC(C)C)C(C)C)cc(C(=O)N(C)Cc2nc(C)cs2)c1` (centres unmarked) [N1-(5-hydroxy-8-(1-(isobutylamino)-3-methyl-1-oxobutan-2-ylamino)-2,7-dimethyl-8-oxooctan-4-yl)-N3,5-dimethyl-N3-((4-methylthiazol-2-yl)methyl)isophthalamide], for which the Ki at memapsin 1, at memapsin 2 and on Cathepsin D was under 405 nM each time. Moreover, in the experiment with Aβ production, the IC50 is under 5 µM.

Regarding `CCCN(Cc1nc(C)cs1)C(=O)c1cccc(C(=O)NC(CC(C)C)C(O)CC(C)C(=O)NC(C(=O)NCC(C)C)C(C)C)c1` (centres unmarked) [N1-(5-hydroxy-8-(1-(isobutylamino)-3-methyl-1-oxobutan-2-ylamino)-2,7-dimethyl-8-oxooctan-4-yl)-N3-((4-methylthiazol-2-yl)methyl)-N3-propylisophthalamide], the Ki is 405 to 2000 nM at memapsin 1, under 405 nM at memapsin 2 and under 405 nM on Cathepsin D. The same molecule gave a half-maximal inhibitory concentration (IC50) in the experiment with Aβ production of 10 to 20 µM.

For `Cc1csc(CNC(=O)c2cccc(C(=O)N[C@@H](CC(C)C)[C@@H](O)C[C@@H](C)C(=O)N[C@H](C(=O)NCC(C)C)C(C)C)c2)n1` [N1-(5-hydroxy-8-(1-(isobutylamino)-3-methyl-1-oxobutan-2-ylamino)-2,7-dimethyl-8-oxooctan-4-yl)-N3-((4-methylthiazol-2-yl)methyl)isophthalamide], the Ki on memapsin 1 was 2000 to 5000 nM; at memapsin 2, under 405 nM; at Cathepsin D, 405 to 2000 nM. For the same molecule, in the experiment on Aβ production, the half-maximal inhibitory concentration (IC50) is over 20 µM.

As to `Cc1ccc(CNC(=O)c2cc(C(=O)NC(CC(C)C)C(O)CC(C)C(=O)NC(C(=O)NCC(C)C)C(C)C)cc(N(C)S(C)(=O)=O)c2)o1` (centres unmarked) [N1-(5-hydroxy-8-(1-(isobutylamino)-3-methyl-1-oxobutan-2-ylamino)-2,7-dimethyl-8-oxooctan-4-yl)-N3-((5-methylfuran-2-yl)methyl)-5-(N-methylmethylsulfonamido)isophthalamide], the Ki at memapsin 1 is 405 to 2000 nM; on memapsin 2, under 405 nM; at Cathepsin D it was 405 to 2000 nM. Further, the IC50 in the experiment on Aβ production is under 5 µM.

As to `CC(C)CNC(=O)C(NC(=O)C(C)CC(O)C(CC(C)C)NC(=O)c1cc(C(=O)N(C)C(C)c2ccccc2)cc(N(C)S(C)(=O)=O)c1)C(C)C` (centres unmarked) [N1-(5-hydroxy-8-(1-(isobutylamino)-3-methyl-1-oxobutan-2-ylamino)-2,7-dimethyl-8-oxooctan-4-yl)-N3-methyl-5-(N-methylmethylsulfonamido)-N3-(1-phenylethyl)isophthalamide], the inhibition constant Ki is under 405 nM at memapsin 1, 405 to 2000 nM on memapsin 2 and under 405 nM on Cathepsin D. The same molecule had a 50% inhibitory concentration (IC50) with Aβ production of over 20 µM.

On to `CC(C)CNC(=O)C(NC(=O)C(C)CC(O)C(CC(C)C)NC(=O)c1cc(C(=O)N(C)Cc2ccccn2)cc(N(C)S(C)(=O)=O)c1)C(C)C` (centres unmarked) [N1-(5-hydroxy-8-(1-(isobutylamino)-3-methyl-1-oxobutan-2-ylamino)-2,7-dimethyl-8-oxooctan-4-yl)-N3-methyl-5-(N-methylmethylsulfonamido)-N3-(pyridin-2-ylmethyl)isophthalamide], for which the results for the Ki at memapsin 1, on memapsin 2 and at Cathepsin D were 405 to 2000 nM, under 405 nM and under 405 nM, respectively. The IC50 in the experiment on Aβ production is over 20 µM.

As for `CC(C)CNC(=O)C(NC(=O)C(C)CC(O)C(CC(C)C)NC(=O)c1cccc(C(=O)N(C)C(C)c2ccccc2)c1)C(C)C` (centres unmarked) [N1-(5-hydroxy-8-(1-(isobutylamino)-3-methyl-1-oxobutan-2-ylamino)-2,7-dimethyl-8-oxooctan-4-yl)-N3-methyl-N3-(1-phenylethyl)isophthalamide], the Ki at memapsin 1, at memapsin 2 and at Cathepsin D was under 405 nM throughout. Besides, the IC50 with Aβ production is over 20 µM.

Take `Cc1csc(CN(C)C(=O)c2cccc(C(=O)NC(CC(C)C)C(O)CC(C)C(=O)NC(C(=O)NCC(C)C)C(C)C)c2)n1` (centres unmarked) [N1-(5-hydroxy-8-(1-(isobutylamino)-3-methyl-1-oxobutan-2-ylamino)-2,7-dimethyl-8-oxooctan-4-yl)-N3-methyl-N3-((4-methylthiazol-2-yl)methyl)isophthalamide]: the Ki is 405 to 2000 nM on memapsin 1, under 405 nM on memapsin 2 and under 405 nM at Cathepsin D. This molecule also displayed an IC50 in the experiment with Aβ production of under 5 µM.

Turning to `CC(C)CNC(=O)C(NC(=O)C(C)CC(O)C(CC(C)C)NC(=O)c1cccc(C(=O)N(C)Cc2cnccn2)c1)C(C)C` (centres unmarked) [N1-(5-hydroxy-8-(1-(isobutylamino)-3-methyl-1-oxobutan-2-ylamino)-2,7-dimethyl-8-oxooctan-4-yl)-N3-methyl-N3-(pyrazin-2-ylmethyl)isophthalamide], the Ki at memapsin 1 is 405 to 2000 nM; at memapsin 2 it was 405 to 2000 nM; at Cathepsin D, under 405 nM. Besides, in the experiment on Aβ production, the IC50 is over 20 µM.

For the molecule `CC(C)CNC(=O)C(NC(=O)C(C)CC(O)C(CC(C)C)NC(=O)c1cccc(C(=O)N(C)Cc2ccccn2)c1)C(C)C` (centres unmarked) [N1-(5-hydroxy-8-(1-(isobutylamino)-3-methyl-1-oxobutan-2-ylamino)-2,7-dimethyl-8-oxooctan-4-yl)-N3-methyl-N3-(pyridin-2-ylmethyl)isophthalamide], the inhibitory constant (Ki) on memapsin 1 was under 405 nM; at memapsin 2, 405 to 2000 nM; at Cathepsin D, under 405 nM. The molecule also registered an IC50 in the experiment with Aβ production of over 20 µM.

As to `CC(C)CNC(=O)C(NC(=O)C(C)CC(O)C(CC(C)C)NC(=O)c1cccc(C(=O)N(C)Cc2cccnc2)c1)C(C)C` (centres unmarked) [N1-(5-hydroxy-8-(1-(isobutylamino)-3-methyl-1-oxobutan-2-ylamino)-2,7-dimethyl-8-oxooctan-4-yl)-N3-methyl-N3-(pyridin-3-ylmethyl)isophthalamide], the Ki on memapsin 1, on memapsin 2 and at Cathepsin D was under 405 nM in each case. In addition, the IC50 in the experiment with Aβ production is over 20 µM.

`CCC(NC(=O)C(C)CC(O)C(CC(C)C)NC(=O)c1cccc(C(=O)N(C)Cc2nc(C)cs2)c1)C(=O)NC(C)C` (centres unmarked) [N1-(5-hydroxy-8-(1-(isopropylamino)-1-oxobutan-2-ylamino)-2,7-dimethyl-8-oxooctan-4-yl)-N3-methyl-N3-((4-methylthiazol-2-yl)methyl)isophthalamide]: the inhibition constant (Ki) was over 5000 nM on memapsin 1, under 405 nM at memapsin 2 and 405 to 2000 nM at Cathepsin D. The molecule also showed a half-maximal inhibitory concentration (IC50) in the experiment with Aβ production of under 5 µM.
